Measurements from US20260053798A1, “COMBINATION THERAPY FOR A RAS RELATED DISEASE OR DISORDER” (Revolution Medicines, Inc., priority 2023, published 2026).

Key:
PDAC KRAS^AMP models = experiment: RMC-6236 plus chemotherapy in PDAC KRAS^AMP models; assay type: in vivo; settings: FIG. 4
PIP3 levels = PIP3 levels in KRAS-mutant PDAC lines; assay type: cell-based; settings: KRAS^G12D-mutant PDAC lines; FIG. 5 right
pERK (MAPK signaling) = pERK (MAPK signaling) levels in KRAS mutant cell lines; assay type: cell-based; settings: FIG. 6
PI3K activity = PI3K activity in KRAS wild-type and KRAS^G12X mutant lines; assay type: cell-based; settings: for PI3K activity: FIG. 5 left

Row | Structure (SMILES) | activity and durability in combination (PDAC KRAS^AMP models; combined with FOLFIRINOX) | activity and durability in combination (PDAC KRAS^AMP models; combined with GEM+Abraxane) | monotherapy activity versus chemotherapy (PDAC KRAS^AMP models; monotherapy, EGFR-mutant PDAC (so in the source)) | PIP3 levels (PIP3 levels) | levels of pERK (MAPK signaling) (pERK (MAPK signaling); KRAS^G12D mutant cell lines) | levels of pERK (MAPK signaling) (pERK (MAPK signaling); KRAS^G12R mutant cell lines) | PI3K activity (PI3K activity; KRAS^G12C) | PI3K activity (PI3K activity; KRAS^G12D) | PI3K activity (PI3K activity; KRAS^G12R line) | PI3K and MAPK activity (summary statement) (PI3K activity; KRAS^G12R lines) | PI3K activity (PI3K activity; KRAS^G12V) | PI3K activity (PI3K activity; KRAS^WT) | PI3K and MAPK activity (summary statement) (PI3K activity; isogenic and mutant KRAS^G12D lines)
1 | CCn1c(-c2cc(N3CCN(C)CC3)cnc2[C@H](C)OC)c2c3cc(ccc31)-c1csc(n1)C[C@H](NC(=O)[C@H]1C[C@@H]1C)C(=O)N1CCC[C@H](N1)C(=O)OCC(C)(C)C2 [RMC-6236] | combination benefit resulting in increased activity and durability | combination benefit resulting in increased activity and durability | comparable activity against EGFR-mutant PDAC as chemotherapy | – | – | – | – | – | – | – | – | – | –
2 | CCn1c(-c2cc(N3CCN(C4CC4)CC3)cnc2[C@H](C)OC)c2c3cc(ccc31)-c1csc(n1)C[C@H](NC(=O)C1[C@H]3COC[C@@H]13)C(=O)N1CCC[C@H](N1)C(=O)OCC(C)(C)C2 (stereo partly shown) [RMC-7977] | – | – | – | suppresses | decreased | decreased | moderate inhibitory effect | completely suppressed | no effect | not | moderate inhibitory effect | completely suppressed | suppresses both PI3K and MAPK activity
